The values that follow come from BindingDB's records for doi:10.1016/s0960-894x(02)00302-5 (Wyeth Research, 2002).

Each structure is given as a SMILES string.

The target in this assay is Proto-oncogene tyrosine-protein kinase Src (Homo sapiens, UniProt P12931). The assay can be described thus: Kinase inhibition Assay. To be noted: pH 7.5; 30 °C. Here is the method: Src kinase activity was measured in an ELISA format. IC50 is the inhibitor concentration which inhibits 50% of kinase activity that catalyzes the transfer of the terminal phosphate from ATP to the substrate.
Sequence of Proto-oncogene tyrosine-protein kinase Src (P12931 2-536 limits assumed): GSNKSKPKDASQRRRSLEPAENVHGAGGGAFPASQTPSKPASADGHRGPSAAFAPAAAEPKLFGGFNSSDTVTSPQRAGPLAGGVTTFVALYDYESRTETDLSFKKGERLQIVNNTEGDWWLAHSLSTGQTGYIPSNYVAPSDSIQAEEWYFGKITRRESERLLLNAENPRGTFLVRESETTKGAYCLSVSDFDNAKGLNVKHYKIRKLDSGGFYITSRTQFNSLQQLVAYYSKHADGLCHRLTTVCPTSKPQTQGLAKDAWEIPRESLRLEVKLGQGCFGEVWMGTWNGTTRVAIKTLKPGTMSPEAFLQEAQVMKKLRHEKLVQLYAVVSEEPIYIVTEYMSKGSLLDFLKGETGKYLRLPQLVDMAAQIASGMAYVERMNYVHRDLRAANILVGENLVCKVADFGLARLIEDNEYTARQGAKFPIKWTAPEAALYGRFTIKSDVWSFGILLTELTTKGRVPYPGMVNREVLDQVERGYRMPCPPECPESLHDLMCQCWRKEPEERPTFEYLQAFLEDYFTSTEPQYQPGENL
The term IC50 denotes the point on the concentration scale where inhibition reaches its midpoint. High values mean weaker potency, low ones greater potency. Take `COc1cc(Nc2c(C#N)cnc3cc(-c4ccc(CN5CCC(O)CC5)s4)ccc23)c(Cl)cc1Cl` [4-[(2,4-dichloro-5-methoxyphenyl)amino]-7-{5-[(4-hydroxypiperidin-1-yl)methyl]thiophen-2-yl}quinoline-3-carbonitrile]: the IC50 was 2 nM. That is a single-digit nanomolar value.
For `COc1cc(Nc2c(C#N)cnc3cc(-c4ccc(CN5CCSCC5)s4)ccc23)c(Cl)cc1Cl` [4-[(2,4-dichloro-5-methoxyphenyl)amino]-7-[5-(thiomorpholin-4-ylmethyl)thiophen-2-yl]quinoline-3-carbonitrile] the value was 4.4 nM; for `COc1cc(Nc2c(C#N)cnc3cc(-c4ccc(CN5CCCCC5)s4)ccc23)c(Cl)cc1Cl` [4-[(2,4-dichloro-5-methoxyphenyl)amino]-7-[5-(piperidin-1-ylmethyl)thiophen-2-yl]quinoline-3-carbonitrile], 4.2 nM.
